Data from patent US20130297023A1, “Methods and Devices For Treating Intervertebral Disc Disease” (priority 2012, published 2013).

Key:
[1] = system: human NP cells; assay: Gelatin zymography of conditioned media from LPS- or IL-1-stimulated human NP cells; assay type: cell-based; settings: MyD88i 100 μM, 24 hr, p<0.01
Description: For short-term monolayer cultures, isolated NP cells from either bovine tails or human spine discs were counted and plated onto 12-well plates at 8×10^5 cells/cm^2 as previously described (Im et al., 2003; Im et al., 2007b). Cells were stimulated with either IL-1 (10 ng/mL, NCI) or LPS (10 μg/mL, Sigma-Aldrich, St. Louis, Mont.) in the presence or absence of MyD88 peptide inhibitor (MyD88i; IMGENEX, San Diego, Calif.) at the concentration of 100 μM, in 1 mL per well of serum-free medium for 24 hours at 37° C. under 5% CO2. Supernatants were collected 24 hours after the initiation of each treatment and subjected to western blotting analyses for secreted matrix-degrading enzyme production. […]
Gelatin zymography was then performed as previously described (Gupta et al., 2007). […] After development, gel images were captured and the clear bands were analyzed using “ImageJ” image analysis software (www.imagej.nih.gov), and were expressed in arbitrary optical density units. […]
Because MyD88i effectively suppresses expression and/or production of multiple cartilage degrading enzymes, TLR-2 and stress-associated genes after stimulation with either LPS or IL-1 (FIGS. 1˜4), the role of MyD88i in antagonizing catalytic enzyme activity was further analyzed by performing reverse zymography (FIG. 5). […]

[2] = system: human NP cells; assay: Real-time qPCR and western blotting of LPS- or IL-1-induced MMP-13, MMP-1, ADAMTS-4 and iNOS in human NP cell monolayers; assay type: cell-based; settings: co-treatment MyD88i 100 μM, 24 hr
Description: (§1) Human spine segments (T11/12 to S1) were received within 24 hours of death of donors from the Gift of Hope Organ and Tissue Donor Network (Elmhurst, Ill.), after obtaining consent from the families. Each of the lumbar segments underwent magnetic resonance imaging (MRI). Intact disc specimens (Thompsons grade 2 or 3) were removed and processed aseptically (Thompson et al., 1990; Kim et al., 2009). After dissection of the NP portion of discs either from human or bovine tails, NP cells were released by enzymatic digestion in Dulbecco's modified Eagle's medium [(DMEM)/Ham's F-12 (1:1)] culture medium with sequential treatments of 0.2% pronase and 0.025% collagenase P, as previously described (Kim et al.; Loeser et al., 2003). Alginate beads and monolayers were prepared for long-term (21 days) and short-term studies (1-2 days) as previously described by our group (Kim et al.; Im et al., 2003; Im et al., 2007b; Im et al., 2008; Li et al., 2008a).
(§2) For short-term monolayer cultures, isolated NP cells from either bovine tails or human spine discs were counted and plated onto 12-well plates at 8×10^5 cells/cm^2 as previously described (Im et al., 2003; Im et al., 2007b). Cells were stimulated with either IL-1 (10 ng/mL, NCI) or LPS (10 μg/mL, Sigma-Aldrich, St. Louis, Mont.) in the presence or absence of MyD88 peptide inhibitor (MyD88i; IMGENEX, San Diego, Calif.) at the concentration of 100 μM, in 1 mL per well of serum-free medium for 24 hours at 37° C. under 5% CO2. Supernatants were collected 24 hours after the initiation of each treatment and subjected to western blotting analyses for secreted matrix-degrading enzyme production. Cells were harvested and prepared for either cell lysates or total RNA extraction followed by real-time qPCR analyses, as previously described (Li et al., 2008b). 18s rRNA was used for normalization.
(§3) Total RNA was isolated from the cells using Trizol reagent (Invitrogen, Carlsbad, Calif.) following the instructions provided by the manufacturer. Reverse transcription was carried out with 1 μg total RNA using the ThermoScript™ RT-PCR system (Invitrogen, Carlsbad, Calif.) for first strand cDNA synthesis.
(§4) For real-time qPCR, cDNA was amplified using MyiQ Real-Time qPCR Detection System (Bio-Rad Hercules, Calif.). The synthesized cDNA was subjected to real-time qPCR utilizing the Bio-Rad iQTM SYBR Green supermix (Bio-Rad Hercules, Calif.). A threshold cycle (Ct value) was obtained from each amplification curve using iQ5 Optical System Software provided by the manufacturer (Bio-Rad Hercules, CA). Relative mRNA expression was determined using the ^ΔΔCT and calculated as follows: ^ΔΔCT=^ΔCT (gene of interest)−^ΔCT (endogenous control). Gene quantification was conducted for entire, individual treatment groups and expressed in terms of fold change from untreated control levels. Expression of 18s rRNA was used as the internal control. The deviations in samples represent 3 different donors in 3 separate experiments.
Cell and tissue lysates were prepared using modified RIPA buffer, as previously described (Li et al., 2008a; Li et al., 2008c). The total protein concentrations of cell lysates were determined by a bicinchoninic acid protein assay (Pierce, Rockford, Ill., USA). An equal amount of protein was resolved by 10% SDS-polyacrylamide gels (SDS-PAGE) and transferred to a nitrocellulose membrane for immunoblot analyses, as described previously (Im et al., 2007b). MMP-13 and MMP-1 antibodies were provided by courtesy of Dr. Gillian Murphy (Cambridge University, UK) Immunoreactivity was visualized using the ECL system (Amersham Biosciences, Piscataway, N.J., USA) and the Signal Visual Enhancer system (Pierce), which magnifies the signal.

[3] = system: mouse lumbar spine discs; assay: Ex vivo intradiscal injection organ culture model, Safranin O-fast green histology for PG loss; settings: intradiscal injection 150 μM per disc, IL-1 100 ng/mL, 6 days organ culture
Description: Lumbar spine segments from deceased mice were dissected under sterile conditions within 12 hrs after sacrifice at the Rush University animal facility for ex vivo organ culture, as previously described (Chiba et al., 1998). The requirement for the pre-treatment of MyD88 has been previously described (Ahmad et al., 2007). Therefore, intradiscal pre-injection of MyD88i ([…]) en bloc was performed using a 30-gauge needle (30 G, 1.50 μL volume). Injected discs were then separated and incubated in DMEM/Ham's F-12 medium supplemented with 1% mini-ITS. After 24 hrs, the MyD88i pre-injected discs were challenged with either IL-1 (100 ng/mL) or LPS (10 μg/mL) and further incubated for 6 days. Harvested discs were fixed in 4% paraformaldehyde and then decalcified in EDTA, which was changed every 5 days. The decalcified discs were paraffin embedded. Serial disc sections of exactly 5-μm thickness were obtained to prepare slides. Safranin O-fast green staining was performed to assess general morphology and the loss of PG in disc ground substance.
Harvested discs were fixed in 4% paraformaldehyde and decalcified in EDTA, which was changed every 5 days. The decalcified discs were paraffin embedded. Serial disc sections of exactly 5-μm thickness were obtained to prepare slides. […]

[4] = system: bovine NP cells; assay: Real-time qPCR of LPS- or IL-1-induced catabolic genes and TLR-2 in bovine NP cell monolayers; assay type: cell-based
Description: as §1, §2, §3, §4
Therefore, NP cells were treated with MyD88i (100 μM), LPS or IL-1, individually, or combinations of LPS and MyD88i or IL-1 and MyD88i for 24 hours. Resulting cellular responses were then analyzed for alterations in gene expression and/or secreted protein levels. Our data reveal the significant upregulation of collagenase (MMP-13) and aggrecanases (ADAMTS-4, ADAMTS-5) after stimulation with either LPS or IL-1 compared to control (untreated) in bovine NP cells (FIGS. 1A˜C).

[5] = MyD88i 100 μM, IL-1 10 ng/mL, 24 hr, qPCR, p<0.05
[6] = MyD88i 100 μM, LPS 10 μg/mL, 24 hr, qPCR, p<0.01

Sequence: DRQIKIWFQNRRMKWKKRDVLPGT [MyD88i]
- IL-1-induced catalytic enzyme activity (gelatin zymography, densitometry) ([1]; IL-1 10 ng/mL): markedly suppressed
- LPS-induced catalytic enzyme activity (gelatin zymography, densitometry) ([1]; LPS 10 μg/mL): markedly suppressed
- IL-1-induced collagenases MMP-13 and MMP-1, mRNA and protein levels ([2]; IL-1 10 ng/mL, p<0.05): significant decreases
- induction of ADAMTS-4 expression by IL-1 ([2]; IL-1 10 ng/mL, qPCR, p<0.05): significantly reduced
- IL-1-induced iNOS gene levels ([2]; IL-1 10 ng/mL, qPCR, p<0.05 vs IL-1 alone): significant suppression
- LPS-induced collagenases MMP-13 and MMP-1, mRNA and protein levels ([2]; LPS 10 μg/mL, p<0.01): significant decreases
- induction of ADAMTS-4 expression by LPS ([2]; LPS 10 μg/mL, qPCR, p<0.01): significantly reduced
- LPS-induced iNOS gene levels ([2]; LPS 10 μg/mL, qPCR, p<0.01 vs LPS alone): significant suppression
- IL-1-induced PG loss in disc organ culture [3]: significantly attenuates
- IL-1-induced upregulation of catabolic gene expression (MMP-13, ADAMTS-4, ADAMTS-5) [4, 5]: significantly suppresses
- IL-1-stimulated TLR-2 levels [4, 5]: significant decrease
- LPS-induced upregulation of catabolic gene expression (MMP-13, ADAMTS-4, ADAMTS-5) [4, 6]: significantly suppresses
- LPS-stimulated TLR-2 levels [4, 6]: significant decrease
- minimal dose demonstrating maximal effects ([4]; initial experiments, monolayer cultures, different concentrations of MyD88i): 100 µM
